# US20210395208A1, “AMORPHOUS COMPOUNDS OF FORMULA (I) AND AMORPHOUS COMPOUNDS OF FORMULA (I) SALTS” (H. Lundeck A/S, priority 2018, published 2021)
# Counter-ions that a name gives are not always drawn.
# How the values were obtained:
# Format in all cases: physicochemical
# [1] = Actual glass transition temperature (Tg) of the amorphous form by DSC; conditions: amorphous form made by melt quenching in the DSC pan, heated 10° C./min
# Protocol: (§1) The terms “actual glass transition temperature” and “calculated glass transition temperature” as used herein refers to the measured (actual) and theoretical (calculated) glass transition temperature associated with a specific compound of Formula (I) or compound of Formula (I) salt. The actual glass transition temperature is determined from the DSC thermogram for the amorphous material, which is exemplified in example 1 and depicted in FIG. 2. The calculated glass transition temperature is calculated as ⅔ of the melting temperature (in Kelvin) of the crystalline form. FIG. 1 illustrate DSC thermograms of crystalline forms of compound (Ia), from which the melting temperature can be determined. The calculation procedure for estimation of the glass transition temperature is described in example 1.
# (§2) As stated in the description of the present application, it is generally recognized that the glass transition temperature can be estimated as ⅔ of the melting temperature of the crystalline material (measured in Kelvin). From the DSC thermograms in FIG. 1 (left), it is seen that the crystalline base of compound (Ia) has an endothermic peak around 60° C. corresponding to the melting of the crystals. Based on the melting temperature of the crystalline base of compound (la), the calculated glass transition temperature of the amorphous form of this compound is thus ⅔*(60° C.+273)=222 K or −51° C. […] This means that the actual measured Tg of this amorphous form is around 5° C. and not −51° C. as calculated using the Beaman Rule.
# (§3) Similar experiments were performed with the hydrogen fumarate of compound (Ia). Here the calculated Tg was based on the observed endothermic peak around 203° C. corresponding to the melting of the crystal (FIG. 1—right). Consequently, the calculated Tg is ⅔ *(203° C.+273)=317 K or 44° C. The thermogram of the amorphous form is shown in FIG. 2 (right) and depicts a change in heat capacity around 66° C. corresponding to a glass transition. This means that the actual measured Tg of the amorphous hydrogen fumarate of compound (Ia) is around 66° C. and not 44° C. as calculated.
# Different scanning programs are used depending on the purpose of the analysis as given in example 9. In all DSC-experiments, 2-5 mg sample is packed into Tzero aluminum hermetic pans with a perforated lid, and the measurement is performed under 50 mL/min dry nitrogen gas purge.
# Melting point and glass transition determined on the base of compound (Ia): Sample of 2-3 mg was packed into Tzero aluminum hermetic pans with a perforated lid and heated 1° C./min to 80° C. (giving the melting point), kept isothermal for 2 min., equilibrated at −50° C., and heated 10° C./min to 110° C. (giving the glass transition of the formed amorphous solid). […]
# [2] = Calculated glass transition temperature, 2/3 of the crystalline melting temperature in Kelvin (Beaman's rule); conditions: crystalline melting points around 60° C. (base) and 203° C. (hydrogen fumarate)
# Protocol: as §1
# The glass transition temperature can be estimated as ⅔ of the melting temperature of the crystalline material (measured in Kelvin). This relationship is known as the “Beaman's rule” and applies to a wide range of both organic, inorganic, simple and polymeric materials. (Beaman, R. G. Journal of Polymer Science, 1952, 9(5): 470-472).
# as §2, §3
# [3] = Recrystallization of amorphous material upon heating above Tg (DSC); conditions: DSC thermogram of the amorphous material, FIG. 2
# Protocol: Melting point and glass transition determined on the base of compound (Ia): Sample of 2-3 mg was packed into Tzero aluminum hermetic pans with a perforated lid and heated 1° C./min to 80° C. (giving the melting point), kept isothermal for 2 min., equilibrated at −50° C., and heated 10° C./min to 110° C. (giving the glass transition of the formed amorphous solid).
# Melting point and glass transition of the hydrogen fumarate of compound (Ia): Sample heated 1° C./min to 210° C. (giving the melting point), kept isothermal for 2 min., equilibrated at −50° C., and heated 10° C./min to 230° C. (giving the glass transition of the formed amorphous solid).
# [4] = Physical stability of amorphous solids by XRPD on storage at ambient conditions; conditions: ambient conditions (15-35 degrees Celsius, 15-75 percent RH), 96 hours, 1, 4, 9 weeks, 5, 8, 12 months
# Protocol: The term “ambient conditions” as used herein refers to conditions with a temperature range of 15-35 degrees Celsius and a relative humidity range of 15-75 percent.
# X-Ray powder diffractograms were measured on a PANalytical X′Pert PRO X-Ray Diffractometer using CuKα1 radiation (λ=1.5406 Å). The samples were measured in reflection mode in the 2θ-range 3-40° using an X'celerator detector. (See FIGS. 3, 4 and 5).
# The amorphous base and the fumarate salt of compound (Ia) were analyzed using XRPD to determine the physical stability of these solid forms. The presence of a substantially amorphous solid form was confirmed by a diffuse halo XRPD pattern similar to FIG. 3, which is characteristic for a solid amorphous form.
# The short-term physical stability of the amorphous solids was analyzed immediately after preparation; the samples were analyzed by XRPD for 96 hours consecutively by alternating measurements every 2 hours. The long-term stability was then assessed by storing the amorphous solids under ambient conditions and analyzing them by XRPD after 1, 4 and 9 weeks as well as 5, 8 and 12 months.
Compound,actual (measured) glass transition temperature Tg [1],actual (measured) glass transition temperature Tg ([1]; listed as amorphous base),calculated glass transition temperature Tg [2] [°C],calculated glass transition temperature Tg ([2]; listed as amorphous base),recrystallization upon heating above the glass transition [3],physical stability of the amorphous solid (XRPD pattern) ([4]; listed as free base),actual (measured) glass transition temperature Tg ([1]; listed as amorphous hydrogen fumarate salt) [°C],calculated glass transition temperature Tg ([2]; listed as amorphous hydrogen fumarate salt of compound (Ia)) [°C],physical stability of the amorphous solid (XRPD pattern) [4]
[2H]c1c([2H])c([2H])c([C@@H]2C[C@@H](N3CCN(C([2H])([2H])[2H])C(C)(C)C3)c3cc(Cl)ccc32)c([2H])c1[2H] [amorphous base of compound (Ia)],around 5 °C,about 4 °C,−51,about −51 °C,do not recrystallize easily above the glass transitions,weak indication of crystallization of the free base after 5 months,–,–,–
[2H]c1c([2H])c([2H])c([C@@H]2C[C@@H](N3CCN(C([2H])([2H])[2H])C(C)(C)C3)c3cc(Cl)ccc32)c([2H])c1[2H] [amorphous hydrogen fumarate of compound (Ia)],around 66 °C,–,44,–,do not recrystallize easily above the glass transitions,–,66,~44,substantially amorphous solids at all timepoints
